# Data as given in US12570643B2, “3-aryloxy-3-five-membered heteroaryl propylamine compound, and crystal form and use thereof” (Shanghai Leado Pharmatech Co. Ltd., priority 2019, dated 2026).
# Assays:
# [1] = tested on: postoperative pain model in rat; test: Postoperative pain model in rat, mechanical hyperalgesia test; type: in vivo; conditions: 10 mg/kg intramuscular injection
# Method: Injection of compound I-1: 36.13 mg of compound I-1 prepared in Example 2 was weighed and added into 3.140 mL of normal saline, and well mixed by vortex;
# The solvent of the test compound I-1 was normal saline, the administration dose was 10 mg/kg, and the administration method was intramuscular injection. 36.13 mg of the compound I-1 was weighed and added into 3.140 mL normal saline, and well mixed by vortex. The reference compound used in the experiment was bupivacaine injection, purchased from Shanghai Zhaohui Pharmaceutical Co., Ltd., in a dose of 10 mg/kg via intramuscular injection.
# Aseptic operation was performed during surgery, surgical instruments (scissors, forceps, scalpel, surgical cotton, suture thread) were disinfected before the operation. The rats were anesthetized with sodium pentobarbital (50 mg/kg, intraperitoneal injection), and the toes of the rats were squeezed to confirm that the animals were completely anesthetized before the surgery. Ophthalmic ointment was applied to the animal's eyes to prevent the animal's cornea from drying out. Iodophor and 70% ethanol were used to disinfect the skin of the surgery area on the sole of the left hind foot three times, and the surgery was started after the skin was dried. Starting at 0.5 cm from the heel, a 1 cm long incision was made longitudinally toward the toe. After cutting the skin, the flexor digitorum brevis was lifted to make longitudinal blunt injury. After pressing to stop the bleeding, the wound was sutured. The surgical instruments were cleaned and sterilized with hot bead sterilizer. After the surgery, the animals were placed on an electric blanket and injected subcutaneously with 5 mL normal saline to prevent dehydration. When the animal was completely awake (free to move), put the animal back into the cage. […]
# The rat was placed alone in a plexiglass box with a grid on the bottom of the box to ensure that the rat's feet can be tested. […] During the test, the animal's rapid foot shrinkage was recorded as a pain response. The animal's foot shrinkage when the test fiber left the animal's skin was also recorded as a pain response. If the animal moved or walked, it would not be recorded as the pain response, the test should be repeated. […] The mechanical hyperalgesia test results are recorded in the table of FIG. 10, in which pain response is indicated with an “x” and no pain response is indicated with an “o.”
# Mechanical hyperalgesia was expressed as the paw withdrawal threshold (PWT) in the behavioral test of rats, which was calculated according to the following equation: 50% response threshold (g)=(10(Xf+k))/10,000 • Xf=the final test fiber value used in the test • K=table value (Chaplan et al. 1994, page 62) • □=Average difference 5. […]
# [2] = Neurocytotoxicity (CCK-8 cytotoxicity test); type: cell-based; conditions: human, SH-SY5Y cells
# Method: HepG-2 and SH-SY5Y cells were prepared and placed in 10 cm dish and incubated at 37° C., 5% CO2 in a cell incubator; the cells were digested with trypsinize, resuspended and then counted. Based on a system of 100 μl/well, 8000 cells were transferred to a 96-well plate. The cells were incubated in a 37° C., 5% CO2 cell incubator for 24 hours; a gradient concentration system of compound I-1 (prepared in Example 2) was prepared, 2 times diluted, the system was 100 μl/well. The supernatant in the 96-well plate cell culture system on the first day was removed, and a fresh prepared drug concentration system was added to the corresponding culture plate wells culturing cells (set up duplicate wells). […] After completion of the culture, the supernatant was removed from the cell culture system of the 96-well plate, 100 μl of detection solution (medium containing 10% CCK-8) was add to each well, and incubated in a cell incubator at 37° C. and 5% CO2 for 1 hour, then taken it out and measured the absorbance at 450 nm with a microplate reader. Data were processed, cytotoxicity was calculated, and IC50 was calculated by GraphPad Prism. […]
# A (dosing): absorbance of the well having cells, CCK-8 solution and drug solution
# A (blank): absorbance of the well having medium and CCK-8 solution, without cells.
# A (0 dosing): absorbance of the well having cells and CCK-8 solution, without drug solution […]
# SNL model in rat = test: SNL model in rat, mechanical hyperalgesia test; type: in vivo, SD rats; conditions: 10 mg/kg intragastric, 1 hour after administration, hydrochloride used; control group 3.967 ± 0.775
# Method: SD rats were taken for surgery, male, SPF grade, mass 150 g-180 g. The surgical procedure was performed aseptically. The animals were anesthetized with sodium pentobarbital (50 mg/kg, intraperitoneal injection). The surgical area of the waist of animals was shaved, and the skin was disinfected three times with iodophor and 70% ethanol. Start the operation after the skin was dry. A longitudinal incision was made in the posterior part of the sacral bone of the animal's waist with a scalpel to expose the left paravertebral muscles, and the muscle tissue was separated with a distractor to expose the vertebra. The left spinal nerves L5 and L6 were separated, ligated with 6-0 silk thread, and the wounds were sutured. After the surgery, the animals were placed on an electric blanket and injected subcutaneously with 5 mL normal saline to prevent dehydration. When the animal was completely awake (free to move), put the animal back into the cage.
# After the surgery, the animals were adapted in the experimental environment for 15 minutes/day for 3 days.
# After administration, mechanical hyperalgesia test was performed. The rats were placed individually in a plexiglas box with a grid at the bottom of the box to ensure that the feet of the rats can be tested. Rats would adapt for 15 minutes before the test. […] The rapid paw withdrawal of the animal during the test was recorded as a pain response. The paw withdrawal of the animal when the test fiber left the animal's skin was also recorded as a pain response. If the animal moved or walked, it will not be recorded as a pain response, the test should be repeated. […]
# Mechanical hyperalgesia was expressed as the paw withdrawal threshold (PWT) in the behavioral test of rats, which was calculated according to the following equation: 50% response threshold (g)=(10(^Xf+kδ))/10,000 • Xf=the final test fiber value used in the test • K=table value • δ=Average difference
# Data were collected using Excel software and analyzed using Prism 6.01 (Graph pad software, Inc.) software.
structure (smiles),measurement,setting,value
"CNCC[C@@H](Oc1cccc2ccoc12)c1cccs1 [Compound I-1, (R)-3-(benzofuran-7-yloxy)-N-methyl-3-(thiophen-2-yl)propan-1-amine]",PWT,"[1]; 1 hour after administration, Normal Saline 3.561",5.885 g
same,PWT (g),"[1]; 2 hours after administration, Normal Saline 3.382",5.135. g
same,IC50 at 72 h,[2],~101 µM
same,PWT,SNL model in rat,7.869 ± 2.846 g
